Laboratory results published in US20120214798A1, “Novel Ethanediamone Hepcidine Antagonists” (VIFOR (INTERNATIONAL) AG, priority 2009, published 2012).

biological target: T1, human ferroportin (Homo sapiens, UniProt Q9NP59); test: Ferroportin internalization assay (inhibition of hepcidin-induced internalization of Fpn, MDCK-FPN-HaloTag cells); format: cell-based; conditions: 100 nM hepcidin
T1 construct: expressed in transfected cells
T1 sequence (Q9NP59 1-571): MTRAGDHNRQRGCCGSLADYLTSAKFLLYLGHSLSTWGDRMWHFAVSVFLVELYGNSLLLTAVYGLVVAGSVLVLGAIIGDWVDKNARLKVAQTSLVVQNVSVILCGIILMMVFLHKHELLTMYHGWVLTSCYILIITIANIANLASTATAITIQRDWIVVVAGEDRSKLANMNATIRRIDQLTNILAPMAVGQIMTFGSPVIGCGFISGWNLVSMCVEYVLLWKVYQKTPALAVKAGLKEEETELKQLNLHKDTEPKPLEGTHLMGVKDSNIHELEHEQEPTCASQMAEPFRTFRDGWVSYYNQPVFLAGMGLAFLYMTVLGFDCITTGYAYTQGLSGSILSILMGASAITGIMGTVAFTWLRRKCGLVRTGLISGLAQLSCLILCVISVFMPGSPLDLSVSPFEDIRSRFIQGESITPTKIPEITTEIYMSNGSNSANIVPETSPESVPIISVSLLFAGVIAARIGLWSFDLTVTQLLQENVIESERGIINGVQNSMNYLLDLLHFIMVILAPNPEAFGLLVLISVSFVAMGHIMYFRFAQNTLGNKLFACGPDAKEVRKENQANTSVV
Procedure: The hepcidin-antagonistic action of the ethanediamine compounds of the present invention was determined by means of the “ferroportin internalization assay” described in the following.
Organic compounds of low molecular weight which counteract the biological actions of hepcidin on its receptor, the iron exporter ferroportin (Fpn), were identified on the basis of their ability to inhibit hepcidin-induced internalization of Fpn in living cells. For this purpose, a stable cell line (Madin-Darby canine kidney, MDCK) was produced which constitutively expresses human ferroportin fused recombinantly at its C terminus with a fluorescent reporter protein (HaloTag®, Promega Corp.). The internalization of Fpn was monitored by labelling these cells with fluorescent ligands (HaloTag®-TMR, tetramethylrhodamine) which join covalently on to the HaloTag reporter gene fused with the Fpn. […] Optimized image analysis algorithms were used to ascertain the cell surface and to quantify the corresponding membrane fluorescence associated with the Fpn-HaloTag fusion protein. This assay allows a quantitative image-based analysis in order to quickly evaluate compounds which can block hepcidin-induced internalization of Fpn. This assay is a direct in vitro pendant of the in vivo action mechanism proposed for medicament candidates and is therefore suitable as an initial assay with a high throughput for identifying compounds which counteract the action of hepcidin on its receptor ferroportin.
• 7,500 cells per well (MDCK-FPN-HaloTag) were transinoculated in 50 μl of DMEM medium (Dulbeccos Modified Eagle Medium with 10% foetal bovine serum (FBS), which contained 1% penicillin, 1% streptomycin and 450 μg/ml of G-418) in microtitre plates with 384 wells (384 Cell carrier plates, Perkin Elmer, cat. no. 6007430), followed by incubation overnight at 37° C./5% CO2. • The volume of the medium was reduced to 10 μl, and 10 μl of 5 μM HaloTag-TMR ligands (Promega, cat. no. G 8251) were added in DMEM medium in order to stain the Fpn-HaloTag fusion protein. • 15 min incubation at 37° C./5% CO2 • The HaloTag-TMR ligand was removed and the cells were washed with fresh DMEM medium and the volume was reduced to 20 μl of DMEM medium. • 3 μl per well of a solution of the test compound (dissolved DMSO) were added ([…]). • 7 μl of […] hepcidin (Peptides International, cat. no. PLP-4392-s, 100 μM stock solution diluted in water in DMEM medium) were added per well up to a final hepcidin concentration of 100 nM. • The cells were incubated overnight at 37° C./5% CO2. • The cells were fixed by adding paraformaldehyde (PFA, Electron Microscopy Sciences, cat. no. 15710-S) directly to the cells up to a final concentration of 4%, followed by incubation at room temperature for 15-20 minutes. • The PFA solution was removed and the cells were washed with PBS (phosphate-buffered saline solution), in each case 30 μl remaining in the plate. • 20 μl of Draq5 (Biostatus, cat. no. DR 51000) were added up to a final concentration of 2.5 μM in order to stain the cell nuclei, and the plates were sealed with a foil plate seal. • The plates were analysed with the Opera Plate Imager (Opera Confocal Plate Imager, Perkin Elmer) with 7 images per well; 440 ms exposure time per image, […] focal point height.

Row | SMILES | I [%] (median inhibition [%] at 10 μm substance conc.)
1 | Fc1ccc(C(CN2CCN(c3cnccn3)CC2)NCc2ccccn2)cc1 (stereo not drawn) [Example 1, [1-(4-Fluoro-phenyl)-2-(2,3,5,6-tetrahydro-[1,2′]bipyrazinyl-4-yl)-ethyl]-pyridin-2-ylmethyl-amine] | >50%
2 | O=C(C1CCCO1)N1CCN(CC(NCc2ccccn2)c2ccc(F)cc2)CC1 (stereo not drawn) [Example 2, (4-{2-(4-Fluoro-phenyl)-2-[(pyridin-2-ylmethyl)-amino]-ethyl}-piperazin-1-yl)-(tetrahydro-furan-2-yl)-methanone] | <50%
3 | O=C(C1CCCO1)N1CCN(CC(NCc2ccccn2)c2ccccc2)CC1 (stereo not drawn) [Example 3, (4-{2-Phenyl-2-[(pyridin-2-ylmethyl)-amino]-ethyl}-piperazin-1-yl)-(tetrahydro-furan-2-yl)-methanone] | <50%
4 | COCCN1CCN(C(CN2CCC(N3CCCCC3)CC2)c2ccccc2)CC1 (stereo not drawn) [Example 4] | >50%
5 | c1ccc(C(CN2CCC(N3CCCCC3)CC2)NCCN2CCOCC2)cc1 (stereo not drawn) [Example 5] | <50%
6 | COc1ccc(CNC(CN2CCC(N3CCCCC3)CC2)c2ccccc2)cc1 (stereo not drawn) [Example 6] | <50%
